Target: T1, active p38 alpha enzyme (Upstate Biotechnology) (Homo sapiens, UniProt Q16539)
T1 construct: purchased Upstate Biotechnology
Experiment: p38α biochemical assay (ATP turnover, luminescent detection, Cambrex PKlight)
Conditions: p38α kinase; Table 1 Biological Activity
Method in brief: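 In this kinase reaction, p38α used MapkapK2 as phosphorylation substrate at low ATP (1.4 uM final) over 2 hours at 30C, and activity was followed as ATP turnover by luminescence.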

T1 sequence (Q16539 whole entry): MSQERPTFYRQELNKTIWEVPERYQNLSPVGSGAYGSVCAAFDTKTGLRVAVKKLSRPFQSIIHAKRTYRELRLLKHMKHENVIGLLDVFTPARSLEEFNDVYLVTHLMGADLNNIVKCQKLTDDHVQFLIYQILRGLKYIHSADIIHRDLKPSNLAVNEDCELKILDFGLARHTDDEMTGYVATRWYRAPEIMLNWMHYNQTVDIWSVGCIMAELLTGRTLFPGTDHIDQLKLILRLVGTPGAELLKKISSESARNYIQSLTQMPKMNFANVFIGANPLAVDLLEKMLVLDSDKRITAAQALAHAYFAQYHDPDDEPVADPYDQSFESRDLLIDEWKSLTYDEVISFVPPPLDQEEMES

## CC(C)NC(=O)c1csc(-c2oc(CN3CCN(c4ccc(C(F)(F)F)cc4)CC3)nc2-c2ccc(F)cc2)n1 [Example 1296]
  IC50: > 1 µM

## CC(C)NC(=O)c1csc(-c2oc(CN3CCN(c4cccc(C(F)(F)F)c4)CC3)nc2-c2ccc(F)cc2)n1 [Example 1297]
  IC50: > 1 µM

## CC(C)NC(=O)c1csc(-c2oc(CN3CCN(c4ccc(Cl)c(Cl)c4)CC3)nc2-c2ccc(F)cc2)n1 [Example 1298]
  IC50: > 1 µM

## CC(C)NC(=O)c1csc(-c2oc(CN3CCN(c4ccc(C(F)(F)F)cn4)CC3)nc2-c2ccc(F)cc2)n1 [Example 1300]
  IC50: > 1 µM

## CC(C)NC(=O)c1csc(-c2oc(CN3CCN(c4ccccc4Cl)CC3)nc2-c2ccc(F)cc2)n1 [Example 1301]
  IC50: > 1 µM

## COc1ccc(N2CCN(Cc3nc(-c4ccc(F)cc4)c(-c4nc(C(=O)NC(C)C)cs4)o3)CC2)cc1OC [Example 1302]
  IC50: > 1 µM

## CC(C)NC(=O)c1csc(-c2oc(CN3CCCC(c4ccc(C(F)(F)F)cc4)C3)nc2-c2ccc(F)cc2)n1 (stereo not drawn) [Example 1303]
  IC50: > 1 µM

## CC(C)NC(=O)c1csc(-c2oc(CNC3CCCc4ccccc43)nc2-c2ccc(F)cc2)n1 (stereo not drawn) [Example 1304]
  IC50: > 1 µM

## CC(C)NC(=O)c1csc(-c2oc(CNc3ccccc3)nc2-c2ccc(F)cc2)n1 [Example 1307]
  IC50: > 1 µM

## Cc1cccc(NCc2nc(-c3ccc(F)cc3)c(-c3nc(C(=O)NC(C)C)cs3)o2)c1 [Example 1308]
  IC50: > 1 µM

## Cc1ccc(NCc2nc(-c3ccc(F)cc3)c(-c3nc(C(=O)NC(C)C)cs3)o2)cc1 [Example 1309]
  IC50: > 1 µM

## Cc1ccccc1NCc1nc(-c2ccc(F)cc2)c(-c2nc(C(=O)NC(C)C)cs2)o1 [Example 1310]
  IC50: > 1 µM

## Cc1ccc(NCc2nc(-c3ccc(F)cc3)c(-c3nc(C(=O)NC(C)C)cs3)o2)nc1 [Example 1311]
  IC50: > 1 µM

## Cc1cccc(NCc2nc(-c3ccc(F)cc3)c(-c3nc(C(=O)NC(C)C)cs3)o2)n1 [Example 1312]
  IC50: > 1 µM

## Cc1ccnc(NCc2nc(-c3ccc(F)cc3)c(-c3nc(C(=O)NC(C)C)cs3)o2)c1 [Example 1313]
  IC50: > 1 µM

## Cc1cccnc1NCc1nc(-c2ccc(F)cc2)c(-c2nc(C(=O)NC(C)C)cs2)o1 [Example 1314]
  IC50: > 1 µM

## CC(C)NC(=O)c1csc(-c2oc(CNc3ccccc3F)nc2-c2ccc(F)cc2)n1 [Example 1315]
  IC50: > 1 µM

## CC(C)NC(=O)c1csc(-c2oc(CNc3ccc(F)cc3)nc2-c2ccc(F)cc2)n1 [Example 1316]
  IC50: > 1 µM

## Cc1ccc(C)c(NCc2nc(-c3ccc(F)cc3)c(-c3nc(C(=O)NC(C)C)cs3)o2)c1 [Example 1317]
  IC50: > 1 µM

## Cc1ccc(NCc2nc(-c3ccc(F)cc3)c(-c3nc(C(=O)NC(C)C)cs3)o2)cc1C [Example 1318]
  IC50: > 1 µM

## CCc1ccccc1NCc1nc(-c2ccc(F)cc2)c(-c2nc(C(=O)NC(C)C)cs2)o1 [Example 1319]
  IC50: > 1 µM

## Cc1cccc(NCc2nc(-c3ccc(F)cc3)c(-c3nc(C(=O)NC(C)C)cs3)o2)c1C [Example 1321]
  IC50: > 1 µM

## Cc1ccc(NCc2nc(-c3ccc(F)cc3)c(-c3nc(C(=O)NC(C)C)cs3)o2)c(C)c1 [Example 1322]
  IC50: > 1 µM

## Cc1cc(C)cc(NCc2nc(-c3ccc(F)cc3)c(-c3nc(C(=O)NC(C)C)cs3)o2)c1 [Example 1323]
  IC50: > 1 µM

## COc1cccc(NCc2nc(-c3ccc(F)cc3)c(-c3nc(C(=O)NC(C)C)cs3)o2)c1 [Example 1324]
  IC50: > 1 µM

## COc1ccc(NCc2nc(-c3ccc(F)cc3)c(-c3nc(C(=O)NC(C)C)cs3)o2)cc1 [Example 1325]
  IC50: > 1 µM

## COc1ccccc1NCc1nc(-c2ccc(F)cc2)c(-c2nc(C(=O)NC(C)C)cs2)o1 [Example 1326]
  IC50: > 1 µM

## COc1ccncc1NCc1nc(-c2ccc(F)cc2)c(-c2nc(C(=O)NC(C)C)cs2)o1 [Example 1327]
  IC50: > 1 µM

## Cc1ccc(NCc2nc(-c3ccc(F)cc3)c(-c3nc(C(=O)NC(C)C)cs3)o2)cc1F [Example 1328]
  IC50: > 1 µM

## Cc1c(F)cccc1NCc1nc(-c2ccc(F)cc2)c(-c2nc(C(=O)NC(C)C)cs2)o1 [Example 1329]
  IC50: > 1 µM

## CC(C)NC(=O)c1csc(-c2oc(CNc3cc(F)cc(F)c3)nc2-c2ccc(F)cc2)n1 [Example 1330]
  IC50: > 1 µM

## CC(C)NC(=O)c1csc(-c2oc(CNc3ccc(F)cc3F)nc2-c2ccc(F)cc2)n1 [Example 1331]
  IC50: > 1 µM

## CC(C)NC(=O)c1csc(-c2oc(CNc3ccc4c(c3)CCC4)nc2-c2ccc(F)cc2)n1 [Example 1333]
  IC50: > 1 µM

## CC(C)NC(=O)c1csc(-c2oc(CNc3ccccc3C(C)C)nc2-c2ccc(F)cc2)n1 [Example 1334]
  IC50: > 1 µM

## CC(=O)c1cccc(NCc2nc(-c3ccc(F)cc3)c(-c3nc(C(=O)NC(C)C)cs3)o2)c1 [Example 1335]
  IC50: > 1 µM

## CC(=O)c1ccc(NCc2nc(-c3ccc(F)cc3)c(-c3nc(C(=O)NC(C)C)cs3)o2)cc1 [Example 1336]
  IC50: > 1 µM

## CCc1cccc(C)c1NCc1nc(-c2ccc(F)cc2)c(-c2nc(C(=O)NC(C)C)cs2)o1 [Example 1337]
  IC50: > 1 µM

## Cc1cc(C)c(NCc2nc(-c3ccc(F)cc3)c(-c3nc(C(=O)NC(C)C)cs3)o2)c(C)c1 [Example 1338]
  IC50: > 1 µM

## CC(C)NC(=O)c1csc(-c2oc(CNc3ccc4c(c3)OCO4)nc2-c2ccc(F)cc2)n1 [Example 1339]
  IC50: > 1 µM

## COc1ccc(NCc2nc(-c3ccc(F)cc3)c(-c3nc(C(=O)NC(C)C)cs3)o2)c(C)c1 [Example 1340]
  IC50: > 1 µM

## CCOc1cccc(NCc2nc(-c3ccc(F)cc3)c(-c3nc(C(=O)NC(C)C)cs3)o2)c1 [Example 1341]
  IC50: > 1 µM

## CCOc1ccccc1NCc1nc(-c2ccc(F)cc2)c(-c2nc(C(=O)NC(C)C)cs2)o1 [Example 1342]
  IC50: > 1 µM

## CSc1ccccc1NCc1nc(-c2ccc(F)cc2)c(-c2nc(C(=O)NC(C)C)cs2)o1 [Example 1343]
  IC50: > 1 µM

## Cc1c(Cl)cccc1NCc1nc(-c2ccc(F)cc2)c(-c2nc(C(=O)NC(C)C)cs2)o1 [Example 1344]
  IC50: > 1 µM

## Cc1ccc(NCc2nc(-c3ccc(F)cc3)c(-c3nc(C(=O)NC(C)C)cs3)o2)cc1Cl [Example 1345]
  IC50: > 1 µM

## CC(C)NC(=O)c1csc(-c2oc(CNc3cnc4ccccc4c3)nc2-c2ccc(F)cc2)n1 [Example 1346]
  IC50: > 1 µM

## CC(C)NC(=O)c1csc(-c2oc(CNc3cc(F)c(F)cc3F)nc2-c2ccc(F)cc2)n1 [Example 1347]
  IC50: > 1 µM

## CC(C)NC(=O)c1csc(-c2oc(CNc3ccccc3C(C)(C)C)nc2-c2ccc(F)cc2)n1 [Example 1348]
  IC50: > 1 µM

## Cc1cccc(C(C)C)c1NCc1nc(-c2ccc(F)cc2)c(-c2nc(C(=O)NC(C)C)cs2)o1 [Example 1349]
  IC50: > 1 µM

## CC(C)NC(=O)c1csc(-c2oc(CNc3ccc4ncsc4c3)nc2-c2ccc(F)cc2)n1 [Example 1350]
  IC50: > 1 µM

## CC(=O)Nc1ccc(NCc2nc(-c3ccc(F)cc3)c(-c3nc(C(=O)NC(C)C)cs3)o2)cc1 [Example 1351]
  IC50: > 1 µM

## CC(=O)Nc1ccc(NCc2nc(-c3ccc(F)cc3)c(-c3nc(C(=O)NC(C)C)cs3)o2)cn1 [Example 1352]
  IC50: > 1 µM

## CC(C)NC(=O)c1csc(-c2oc(CNc3ccc4c(c3)OCCO4)nc2-c2ccc(F)cc2)n1 [Example 1353]
  IC50: > 1 µM

## CC(C)NC(=O)c1csc(-c2oc(CNc3ccccc3-n3cccc3)nc2-c2ccc(F)cc2)n1 [Example 1354]
  IC50: > 1 µM

## CC(C)NC(=O)c1csc(-c2oc(CNc3ccc(C(F)(F)F)cc3)nc2-c2ccc(F)cc2)n1 [Example 1355]
  IC50: > 1 µM

## CC(C)NC(=O)c1csc(-c2oc(CNc3cccc(C(F)(F)F)c3)nc2-c2ccc(F)cc2)n1 [Example 1356]
  IC50: > 1 µM

## CC(C)NC(=O)c1csc(-c2oc(CNc3ccc(Cl)c(Cl)c3)nc2-c2ccc(F)cc2)n1 [Example 1357]
  IC50: > 1 µM

## Cc1cccc(C(C)(C)C)c1NCc1nc(-c2ccc(F)cc2)c(-c2nc(C(=O)NC(C)C)cs2)o1 [Example 1358]
  IC50: > 1 µM

## CC(C)NC(=O)c1csc(-c2oc(CNc3ccc(N(C)C)cc3)nc2-c2ccc(F)cc2)n1 [Example 1359]
  IC50: > 1 µM

## CC(C)NC(=O)c1csc(-c2oc(CNc3ccccc3-c3ccccc3)nc2-c2ccc(F)cc2)n1 [Example 1360]
  IC50: > 1 µM

## CC(C)NC(=O)c1csc(-c2oc(CNc3ccc(OC(F)(F)F)cc3)nc2-c2ccc(F)cc2)n1 [Example 1361]
  IC50: > 1 µM

## CC(C)NC(=O)c1csc(-c2oc(CNc3c(C(C)C)cccc3C(C)C)nc2-c2ccc(F)cc2)n1 [Example 1362]
  IC50: > 1 µM

## CC(C)NC(=O)c1csc(-c2oc(CNc3ccc(F)cc3C(F)(F)F)nc2-c2ccc(F)cc2)n1 [Example 1363]
  IC50: > 1 µM

## CC(C)NC(=O)c1csc(-c2oc(CNc3cc(C(F)(F)F)ccc3F)nc2-c2ccc(F)cc2)n1 [Example 1364]
  IC50: > 1 µM

## CC(C)NC(=O)c1csc(-c2oc(CNc3ccc(F)c(C(F)(F)F)c3)nc2-c2ccc(F)cc2)n1 [Example 1365]
  IC50: > 1 µM

## CCOc1ccc(OCC)c(NCc2nc(-c3ccc(F)cc3)c(-c3nc(C(=O)NC(C)C)cs3)o2)c1 [Example 1366]
  IC50: > 1 µM

## CC(C)NC(=O)c1csc(-c2oc(CNc3cc(Cl)c(Cl)c(Cl)c3)nc2-c2ccc(F)cc2)n1 [Example 1367]
  IC50: > 1 µM

## CC(C)NC(=O)c1csc(-c2oc(CNc3ccccc3C(=O)c3ccccc3)nc2-c2ccc(F)cc2)n1 [Example 1368]
  IC50: > 1 µM

## CC(C)NC(=O)c1csc(-c2oc(CNc3ccccc3COc3ccccc3)nc2-c2ccc(F)cc2)n1 [Example 1369]
  IC50: > 1 µM

## COc1ccc(-c2ccccc2)cc1NCc1nc(-c2ccc(F)cc2)c(-c2nc(C(=O)NC(C)C)cs2)o1 [Example 1370]
  IC50: > 1 µM

## CC(C)NC(=O)c1csc(-c2oc(CNc3ncccc3OCc3ccccc3)nc2-c2ccc(F)cc2)n1 [Example 1371]
  IC50: > 1 µM

## CC(C)NC(=O)c1csc(-c2oc(CNc3cc(C(F)(F)F)ccc3C(F)(F)F)nc2-c2ccc(F)cc2)n1 [Example 1372]
  IC50: > 1 µM
